According to US20220281848A1, “PYRAZOLE-SUBSTITUTED PYRROLIDINONES AS HERBICIDES” (FMC Corporation, priority 2019, published 2022):

System: plants
Assay: Test D pre-emergence, other plants of Tables D1 and D3
Type: in vivo
Details: preemergent
How it was run: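 Seeds treated with herbicide safener; sown in soil; glasshouse, 16 h light, 65% humidity. Sprayed day 1 (pre) or ~day 12 (post). Spray in 0.2% v/v adjuvant. Scored 0–100 damage: 20 DAA pre, 15 d post.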

SMILES: CN1CC(c2cc(Cl)n(C)n2)C(C(=O)Nc2ccc(F)c(F)c2F)C1=O (racemic) [Compound 31]
- ABUTH damage to plant (100=total damage; 0=no damage) (Rates 15, 20 DAA): 0
- AMARE damage to plant (100=total damage; 0=no damage) (Rates 15, 20 DAA): 0
- BIDPI damage to plant (100=total damage; 0=no damage) (Rates 15, 20 DAA): 0
- BRAPL damage to plant (100=total damage; 0=no damage) (Rates 15, 20 DAA): 0
- CYPES damage to plant (100=total damage; 0=no damage) (Rates 15, 20 DAA): 0
- DIGSA damage to plant (100=total damage; 0=no damage) (Rates 15, 20 DAA): 0
- ECHCG damage to plant (100=total damage; 0=no damage) (Rates 15, 20 DAA): 0
- EPHHL damage to plant (100=total damage; 0=no damage) (Rates 15, 20 DAA): 0
- GLXMA damage to plant (100=total damage; 0=no damage) (Rates 15, 20 DAA): 0
- IPOHE damage to plant (100=total damage; 0=no damage) (Rates 15, 20 DAA): 0
- ORYSA damage to plant (100=total damage; 0=no damage) (Rates 15, 20 DAA): 0
- PANMI damage to plant (100=total damage; 0=no damage) (Rates 15, 20 DAA): 0
- SETFA damage to plant (100=total damage; 0=no damage) (Rates 15, 20 DAA): 0
- SORVU damage to plant (100=total damage; 0=no damage) (Rates 15, 20 DAA): 0
- ABUTH damage to plant (100=total damage; 0=no damage) (Rates 30, 20 DAA): 0
- AMARE damage to plant (100=total damage; 0=no damage) (Rates 30, 20 DAA): 0
- BIDPI damage to plant (100=total damage; 0=no damage) (Rates 30, 20 DAA): 0
- BRAPL damage to plant (100=total damage; 0=no damage) (Rates 30, 20 DAA): 10
- CYPES damage to plant (100=total damage; 0=no damage) (Rates 30, 20 DAA): 0
- DIGSA damage to plant (100=total damage; 0=no damage) (Rates 30, 20 DAA): 10
- ECHCG damage to plant (100=total damage; 0=no damage) (Rates 30, 20 DAA): 0
- EPHHL damage to plant (100=total damage; 0=no damage) (Rates 30, 20 DAA): 0
- GLXMA damage to plant (100=total damage; 0=no damage) (Rates 30, 20 DAA): 0
- IPOHE damage to plant (100=total damage; 0=no damage) (Rates 30, 20 DAA): 0
- ORYSA damage to plant (100=total damage; 0=no damage) (Rates 30, 20 DAA): 0
- PANMI damage to plant (100=total damage; 0=no damage) (Rates 30, 20 DAA): 0
- SETFA damage to plant (100=total damage; 0=no damage) (Rates 30, 20 DAA): 0
- SORVU damage to plant (100=total damage; 0=no damage) (Rates 30, 20 DAA): 0
- ABUTH damage to plant (100=total damage; 0=no damage) (Rates 60, 20 DAA): 0
- AMARE damage to plant (100=total damage; 0=no damage) (Rates 60, 20 DAA): 0
- BIDPI damage to plant (100=total damage; 0=no damage) (Rates 60, 20 DAA): 0
- BRAPL damage to plant (100=total damage; 0=no damage) (Rates 60, 20 DAA): 60
- CYPES damage to plant (100=total damage; 0=no damage) (Rates 60, 20 DAA): 0
- DIGSA damage to plant (100=total damage; 0=no damage) (Rates 60, 20 DAA): 50
- ECHCG damage to plant (100=total damage; 0=no damage) (Rates 60, 20 DAA): 30
- EPHHL damage to plant (100=total damage; 0=no damage) (Rates 60, 20 DAA): 0
- GLXMA damage to plant (100=total damage; 0=no damage) (Rates 60, 20 DAA): 0
- IPOHE damage to plant (100=total damage; 0=no damage) (Rates 60, 20 DAA): 0
- ORYSA damage to plant (100=total damage; 0=no damage) (Rates 60, 20 DAA): 0
- PANMI damage to plant (100=total damage; 0=no damage) (Rates 60, 20 DAA): 0
- SETFA damage to plant (100=total damage; 0=no damage) (Rates 60, 20 DAA): 10
- SORVU damage to plant (100=total damage; 0=no damage) (Rates 60, 20 DAA): 0
- ABUTH damage to plant (100=total damage; 0=no damage) (Rates 130, 20 DAA): 0
- AMARE damage to plant (100=total damage; 0=no damage) (Rates 130, 20 DAA): 0
- BIDPI damage to plant (100=total damage; 0=no damage) (Rates 130, 20 DAA): 0
- BRAPL damage to plant (100=total damage; 0=no damage) (Rates 130, 20 DAA): 80
- CYPES damage to plant (100=total damage; 0=no damage) (Rates 130, 20 DAA): 0
- DIGSA damage to plant (100=total damage; 0=no damage) (Rates 130, 20 DAA): 90
- ECHCG damage to plant (100=total damage; 0=no damage) (Rates 130, 20 DAA): 30
- EPHHL damage to plant (100=total damage; 0=no damage) (Rates 130, 20 DAA): 0
- GLXMA damage to plant (100=total damage; 0=no damage) (Rates 130, 20 DAA): 0
- IPOHE damage to plant (100=total damage; 0=no damage) (Rates 130, 20 DAA): 0
- ORYSA damage to plant (100=total damage; 0=no damage) (Rates 130, 20 DAA): 0
- PANMI damage to plant (100=total damage; 0=no damage) (Rates 130, 20 DAA): 0
- SETFA damage to plant (100=total damage; 0=no damage) (Rates 130, 20 DAA): 30
- SORVU damage to plant (100=total damage; 0=no damage) (Rates 130, 20 DAA): 0
- ABUTH damage to plant (100=total damage; 0=no damage) (Rates 250, 20 DAA): 0
- AMARE damage to plant (100=total damage; 0=no damage) (Rates 250, 20 DAA): 0
- BIDPI damage to plant (100=total damage; 0=no damage) (Rates 250, 20 DAA): 0
- BRAPL damage to plant (100=total damage; 0=no damage) (Rates 250, 20 DAA): 80
- CYPES damage to plant (100=total damage; 0=no damage) (Rates 250, 20 DAA): 0
- DIGSA damage to plant (100=total damage; 0=no damage) (Rates 250, 20 DAA): 90
- ECHCG damage to plant (100=total damage; 0=no damage) (Rates 250, 20 DAA): 80
- EPHHL damage to plant (100=total damage; 0=no damage) (Rates 250, 20 DAA): 0
- GLXMA damage to plant (100=total damage; 0=no damage) (Rates 250, 20 DAA): 0
- IPOHE damage to plant (100=total damage; 0=no damage) (Rates 250, 20 DAA): 0
- ORYSA damage to plant (100=total damage; 0=no damage) (Rates 250, 20 DAA): 0
- PANMI damage to plant (100=total damage; 0=no damage) (Rates 250, 20 DAA): 0
- SETFA damage to plant (100=total damage; 0=no damage) (Rates 250, 20 DAA): 20
- SORVU damage to plant (100=total damage; 0=no damage) (Rates 250, 20 DAA): 0
- ABUTH damage to plant (100=total damage; 0=no damage) (Rates 500, 20 DAA): 0
- AMARE damage to plant (100=total damage; 0=no damage) (Rates 500, 20 DAA): 0
- BIDPI damage to plant (100=total damage; 0=no damage) (Rates 500, 20 DAA): 0
- BRAPL damage to plant (100=total damage; 0=no damage) (Rates 500, 20 DAA): 90
- CYPES damage to plant (100=total damage; 0=no damage) (Rates 500, 20 DAA): 0
- DIGSA damage to plant (100=total damage; 0=no damage) (Rates 500, 20 DAA): 90
- ECHCG damage to plant (100=total damage; 0=no damage) (Rates 500, 20 DAA): 90
- EPHHL damage to plant (100=total damage; 0=no damage) (Rates 500, 20 DAA): 0
- GLXMA damage to plant (100=total damage; 0=no damage) (Rates 500, 20 DAA): 0
- IPOHE damage to plant (100=total damage; 0=no damage) (Rates 500, 20 DAA): 0
- ORYSA damage to plant (100=total damage; 0=no damage) (Rates 500, 20 DAA): 0
- PANMI damage to plant (100=total damage; 0=no damage) (Rates 500, 20 DAA): 0
- SETFA damage to plant (100=total damage; 0=no damage) (Rates 500, 20 DAA): 90
- SORVU damage to plant (100=total damage; 0=no damage) (Rates 500, 20 DAA): 0
